Measured values reported in US20140179664A1, “Heterocyclyl Pyrimidine Analogues As JAK Inhibitors” (Cellzome Limited, priority 2011, published 2014).

Tested on: STAT5 phosphorylation downstream of JAK3 in human YT cells
Experiment: pSTAT5 cell assay (IL-2 stimulated YT cells, AlphaScreen)
Assay type: cell-based
Settings: IL-2 stimulation, read-out: Inhibition values (IC50) pSTAT5
From the text: STAT5 phosphorylation represents one of the proximal events in the signalling cascade downstream of JAK3 activation. Therefore STAT5 phosphorylation is an appropriate readout to assess the mechanistic effect of JAK3 inhibition. Stimulation of human YT cells, an NK-like cell line, with interleukin-2 (IL-2) results in phosphorylation of STAT5 at tyrosine residue 694 (Tyr694) that can be quantitatively measured by immunodetection with specific antibodies and an appropriate detection method, in this case AlphaScreen assay technology.
Human YT cells were grown in RPMI medium (Lonza, BE12-167) with 2 mM L-Glutamine (Invitrogen, 25030-024) and 10% heat-inactivated FBS (Invitrogen, 10106-169) and kept in a humidified incubator (37° C., 5% CO2). Cells were harvested by centrifugation, washed once with HBSS (Invitrogen, 14180-046), resuspended in HBSS at 1.5×10^6 cells/ml and 0.9×10^4 cells were seeded in 6 μl per well in a 96 well White plate (PerkinElmer, 6005569).
Test compounds were dissolved in DMSO and a 1:3 dilution series (9 steps) was prepared. To generate a dose response curve, 3 μl of fourfold concentrated compound in 4% DMSO/HBSS were added to each cell sample in the 96 well plate resulting in a final DMSO concentration of 1% DMSO. Cells were incubated for one hour in a humidified incubator (37° C., 5% CO2). To each well 3 μl of a fourfold concentrated IL-2 solution (Recombinant human IL-2, Peprotech 200-02; 120 nM solution in HBSS) was added and incubated for 30 minutes at room temperature. Cells were lysed by adding 3 μl of 5× lysis buffer (SureFire lysis buffer; Perkin Elmer, TGRS5S10K) and incubated for 10 minutes at room temperature with gentle shaking
For signal detection by AlphaScreen® technology the SureFire phospho-STAT5 (Tyr694/Tyr699) kit was used according to instructions provided by the manufacturer (Perkin Elmer, TGRS5S10K). Acceptor beads were added as recommended by the manufacturer (Reactivation buffer/Activation buffer/Acceptor beads at a ratio of 40:10:1) and incubated at room temperature for 1.5 hours with gentle shaking Then donor beads were added as recommended (Dilution buffer/Donor beads at a ratio of 20:1) and incubated at room temperature for 1.5 hours with gentle shaking Plates were read on an Envision instrument (Perkin Elmer) with the AlphaScreen protocol. Data were analysed in BioAssay using the nonlinear regression for a sigmoidal dose-response with a variable slope.

IC50: < 250 nM
SMILES: NC(=O)Cn1cc(Nc2ncc(Cl)c(N[C@H](CO)c3cccc(F)c3)n2)cn1 [Compound 87]
